Where two headings read alike, the source gives them in different places. Each block holds one molecule with its values, some of them ahead of it.
Tests used:
human PRC2 complex = human PRC2 complex (Homo sapiens, UniProt O75530+Q15022+Q15910, DEL183-210)
Description: All anisotropy titrations were performed at 20 °C using a Jasco FP-8500 fluorimeter.
affinity of PRC2 for H3 peptide.
(a) Direct titration of PRC2 into FAM-K27M (0.4 μM) in the presence
absence of co-factor (white circles).
(320 μM) with unlabelled peptides.
titration of PRC2 into FAM-
The titration in the absence of repressive

PRC2 [1] = details: repressive peptides; cited from earlier work
PRC2 [2] = details: kinetic studies, cited from earlier work
Excerpt: In their recent analysis, Brown et al.[19] quantified the inhibitory affect of a series of peptide constructs varying in the side chain (both natural and synthetic) at position 27.

[3] = target: human PRC2 core complex (EZH2^N 1-385 lacking 183-210, EZH2^C 421-746, EED 77-441, SUZ12 535-685) (human) (UniProt Q15910); experiment: fluorescence polarisation; anisotropy displacement titration: unlabelled peptide added to FAM-H3K27M (0.4 μM) and PRC2 ([…]) with SAM (320 μM); 20 °C; 25 mM Hepes pH 7.25, 25 mM NaCl, 1 mM TCEP, 0.01% Brij-35
human PRC2 core complex (EZH2^N 1-385 lacking 183-210, EZH2^C 421-746, EED 77-441, SUZ12 535-685) (human), sequence (Q15910 other isoform, or with tags, fused parts or gaps, chain 1 of 4): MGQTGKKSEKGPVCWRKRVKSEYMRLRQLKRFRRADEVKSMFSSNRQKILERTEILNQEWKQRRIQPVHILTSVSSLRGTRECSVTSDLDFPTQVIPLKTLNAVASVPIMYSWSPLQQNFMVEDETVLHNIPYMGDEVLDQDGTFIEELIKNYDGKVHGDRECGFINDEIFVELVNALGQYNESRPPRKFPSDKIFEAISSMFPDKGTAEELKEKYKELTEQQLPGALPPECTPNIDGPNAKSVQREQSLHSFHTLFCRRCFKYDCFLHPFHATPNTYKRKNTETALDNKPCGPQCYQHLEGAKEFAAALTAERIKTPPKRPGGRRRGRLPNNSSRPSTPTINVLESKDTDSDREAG
human PRC2 core complex (EZH2^N 1-385 lacking 183-210, EZH2^C 421-746, EED 77-441, SUZ12 535-685) (human), sequence (Q15910 421-746, chain 2 of 4): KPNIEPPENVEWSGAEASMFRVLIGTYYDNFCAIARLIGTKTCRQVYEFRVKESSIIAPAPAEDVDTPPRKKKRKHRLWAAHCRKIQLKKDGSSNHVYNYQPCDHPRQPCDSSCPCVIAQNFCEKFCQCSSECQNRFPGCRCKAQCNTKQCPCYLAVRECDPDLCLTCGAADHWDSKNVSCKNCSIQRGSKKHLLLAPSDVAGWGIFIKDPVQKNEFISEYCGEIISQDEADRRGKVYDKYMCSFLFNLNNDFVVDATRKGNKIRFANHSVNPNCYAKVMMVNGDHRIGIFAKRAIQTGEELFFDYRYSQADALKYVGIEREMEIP
human PRC2 core complex (EZH2^N 1-385 lacking 183-210, EZH2^C 421-746, EED 77-441, SUZ12 535-685) (human), sequence (O75530 77-441, chain 3 of 4, further chain): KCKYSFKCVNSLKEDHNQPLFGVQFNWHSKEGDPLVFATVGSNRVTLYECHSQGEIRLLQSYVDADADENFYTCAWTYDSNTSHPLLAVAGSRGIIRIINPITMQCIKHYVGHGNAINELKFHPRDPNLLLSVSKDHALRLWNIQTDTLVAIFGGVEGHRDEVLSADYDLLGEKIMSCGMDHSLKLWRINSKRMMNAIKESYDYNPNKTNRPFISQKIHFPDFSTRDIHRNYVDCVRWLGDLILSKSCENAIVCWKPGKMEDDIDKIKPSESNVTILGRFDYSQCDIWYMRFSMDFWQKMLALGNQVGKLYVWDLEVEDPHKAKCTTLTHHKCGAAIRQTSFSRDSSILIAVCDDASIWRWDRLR
human PRC2 core complex (EZH2^N 1-385 lacking 183-210, EZH2^C 421-746, EED 77-441, SUZ12 535-685) (human), sequence (Q15022 535-685, chain 4 of 4, further chain): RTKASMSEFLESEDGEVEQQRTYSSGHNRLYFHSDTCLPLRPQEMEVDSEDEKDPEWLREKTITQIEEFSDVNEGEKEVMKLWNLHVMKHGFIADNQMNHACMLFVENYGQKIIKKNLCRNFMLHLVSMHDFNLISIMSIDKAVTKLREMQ

human PRC2 complex, sequence (Q15910 421-746 limits assumed, stated change not applied): as the sequence (Q15910 421-746, chain 2 of 4) above
human PRC2 complex, sequence (Q15910 with tags, fused parts or gaps DEL183-210 limits assumed): as the sequence (Q15910 other isoform, or with tags, fused parts or gaps, chain 1 of 4) above
human PRC2 complex, sequence (O75530 77-441 partner limits assumed): as the sequence (O75530 77-441, chain 3 of 4, further chain) above
human PRC2 complex, sequence (Q15022 535-685 partner limits assumed): as the sequence (Q15022 535-685, chain 4 of 4, further chain) above

binding of cofactor product (human PRC2 complex; relative to SAM): binds much weaker
Molecule: Nc1ncnc2c1ncn2[C@@H]1O[C@H](CSCC[C@H](N)C(=O)O)[C@@H](O)[C@H]1O [SAH]

Kd (human PRC2 complex): 47 ± 9 µM
Molecule: C[S+](CC[C@H](N)C(=O)[O-])C[C@H]1O[C@@H](n2cnc3c(N)ncnc32)[C@H](O)[C@@H]1O (stereo partly drawn) [SAM, S-adenosylmethionine]

Molecule: Jarid2 K116me3: trimethylated K116 Jarid2 peptide (residues 111–121), binds EED and activates PRC2
activation of PRC2 (PRC2 [1]): strongest activation of PRC2

Molecule: Norleucine
relative inhibition of PRC2 by residue at position 27 (words) (PRC2 [2]): even better inhibitor than methionine
relative inhibition of PRC2 by residue at position 27 (words) (PRC2 [2]; listed as norleucine): strong inhibition

Kd [3]: 73 µM
Molecule: unlabelled H3R26AK27M peptide

Source: publication PMC4853476 (Nature Communications, 2016)
